# Entries after “also recorded” stand apart in the source; their conditions may differ.
# Key:
# [1] = tested on: human HL-60 tumor cell xenografts; test: Subcutaneous HL-60 tumor xenograft model in SCID mice; type: in vivo
# Protocol: (§1) Subcutaneous tumor model—HL-60 human promyelocytic leukemia cells (5×10^6 cells in 0.1 mL) were subcutaneously inoculated into the right flank of female SCID mice. Mice were treated by intravenous injection into a lateral tail vein starting when tumors reached 100 mm^3 in size (400 mm^3 in large tumor model). Tumor size and mouse body weight were measured twice per week. Survival model—HL-60 cells (5×10^6 cells in 0.1 mL) were intravenously injected into the lateral tail vein of female SCID mice. Eleven days after tumor cell injection treatment was started. Mice were checked every day for moribund, tumor mass, or death. Body weight was measured twice per week.
# The efficacy of My9-6-DM1 in vivo was determined using SCID mice bearing human HL-60 tumor cell xenografts. HL-60 cells were injected subcutaneously and tumors were allowed to grow to an average size of 100 mm^3. Dosage is expressed as mg antibody in the conjugate, which corresponds to a DM1 dose of approximately 15 μg DM1 per mg of antibody. Tumor volume was measured as an indication of treatment efficacy and mouse body weight was monitored to indicate toxicity due to treatment.
# [2] = tested on: HL-60 cells injected intravenously; test: HL-60 cell mouse survival model; type: in vivo, SCID mice; conditions: treatment starting 11 days after cell injection
# Protocol: FIGS. 24A & B show anti-tumor efficacy of My9-6-DM1 compared with Gentuzumab ozogamicin and standard chemotherapy in an HL-60 survival model. HL-60 cells were intravenously injected into SCID mice. Indicated treatments were started 11 days following injection of cells. Treatments were i.v. daily ×5 except for Gentuzumab ozogamicin (Q4D×3).
# as §1
# While the efficacy of My9-6-DM1 in the tumor xenograft model is striking, it is also of interest to look at the activity of the conjugate in a mouse survival model where HL-60 cells are injected directly into a mouse tail vein. In this model, control mice die between 30 and 50 days after cell injection. […] However, even in this model, standard chemotherapy provided no significant survival enhancement (FIG. 24B).
# CD33 [3] = target: T1, CD33 (Homo sapiens, UniProt P20138); conditions: 9 mg/m^2 i.v. over 4 hours, repeated after 14 days; cited from earlier work
# T1 construct: Gemtuzumab ozogamicin was evaluated in phase I and II clinical studies; host or cells: patients (AML)
# T1 sequence (P20138 18-364): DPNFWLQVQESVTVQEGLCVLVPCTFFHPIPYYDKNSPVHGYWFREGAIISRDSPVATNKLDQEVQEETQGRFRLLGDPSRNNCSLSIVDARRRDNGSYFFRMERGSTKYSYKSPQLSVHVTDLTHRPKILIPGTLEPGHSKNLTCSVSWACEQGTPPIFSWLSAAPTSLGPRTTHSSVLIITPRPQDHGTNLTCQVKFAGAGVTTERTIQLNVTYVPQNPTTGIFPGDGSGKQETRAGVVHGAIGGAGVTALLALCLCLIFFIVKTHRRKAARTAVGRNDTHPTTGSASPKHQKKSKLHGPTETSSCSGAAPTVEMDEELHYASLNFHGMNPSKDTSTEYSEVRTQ
# CD33 [4] = target: T1, CD33; conditions: Phase I; cited from earlier work
# [5] = in vivo; cited from earlier work
# [6] = tested on: leukemia cells (HL-60 cell cultures, HL-60 tumor xenografts in mice, marrow samples from AML patients); conditions: cited from earlier work
# [7] = nude mice; cited from earlier work
# CD33 on HL-60 cells = target: T2, CD33 on HL-60 cells (Homo sapiens, UniProt P20138); test: Antibody and conjugate binding to HL-60 cells by flow cytometry
# T2 construct: endogenous in cells; host or cells: HL-60 human leukemic cell line (whole cells; plasma membranes prepared from HL-60)
# T2 sequence (P20138 18-364): as above
# Protocol: HL-60 cells were incubated with various concentrations of either My9-6 antibody or My9-6-DM1. The cells were then washed and incubated with a secondary FITC-labeled anti-murine IgG antibody. Following an additional wash, cells were fixed with 2% formaldehyde and cell-associated fluorescence was quantified using a BD FACScan flow cytometer.
# THP-1 cells = test: In vitro clonogenic cytotoxicity assay, CD33-expressing cells; type: cell-based, human; conditions: THP-1, clonogenic assay
# Protocol: (§2) The cytotoxicity of My9-6-DM1 was measured using the CD33-expressing THP-1 cell and the CD33-negative cell line Namalwa. Cells were plated in 96-well plates in media containing the conjugate and incubated at 37° C. until colonies had formed (2-3 weeks). Colonies were then scored, and the surviving fractions determined using Poisson distribution in the calculations.
# (§3) The cytotoxicity of My9-6-DM1 toward CD33 expressing cells (THP-1) compared to a CD33-negative cell line (Namalwa) was tested using a clonogenic assay, where cell killing activity is determined by quantifying the number of colonies that can grow following treatment.
# Namalwa cells = test: In vitro clonogenic cytotoxicity assay, CD33-negative cells; type: cell-based
# Protocol: as §2, §3
# [8] = tested on: human THP-1 tumor xenografts; test: Subcutaneous THP-1 tumor xenograft model in mice; type: in vivo; conditions: data not shown
# large HL-60 tumors = test: Large HL-60 tumor xenograft model in SCID mice; type: in vivo
# Protocol: as §1
# Tumors were allowed to grow to a tumor volume of >400 mm^3 prior to the initiation of treatment. In addition, a comparison of the activity of My9-6-DM1 with standard chemotherapeutic drugs was conducted. […]
# [9] = 100 μg/kg, every 4 days for 3 doses
# [10] = 20 mg conjugated antibody/kg/day i.v. ×5 days
# [11] = second treatment identical to the first
# [12] = tumor volume >400 mm^3 at start of treatment
substance,measurement,setting,value
Gemtuzumab ozogamicin: humanized anti-CD33 antibody conjugated to calicheamicin [reference compound],tumor growth delay,[1]; [9],about 25 days
same,tumor response,[1]; [9],modest tumor regression
same,toxicity in SCID mice,"[1]; 0.3 mg/kg, preliminary experiment, data not shown",too toxic
same,toxicity,"[1]; 100 and 200 μg/kg, every 4 days for 3 doses",Significant toxicity
same,maximum tolerated dose,"[1]; SCID mice, every 4 days for 3 doses",0.1 mg/kg
same,effect on survival,[2],modest increase in survival
same,response rate,CD33 [3],30%
same,major toxicity observed,CD33 [4],myelosuppression
same,toxicity in post-marketing reports,[5],venoocclusive disease (VOD)
same,killing of leukemia cells,[6],specific killing of leukemia cells
same,published MTD,[7],0.3 mg/kg
My9-6-DM1: murine My9-6 antibody linked via SPP disulfide linker to the maytansinoid DM1,CD33 binding of conjugate compared with unmodified antibody,CD33 on HL-60 cells,maintained the specificity and binding affinity of the unmodified antibody; also recorded: comparable to the unmodified antibody
same,cytotoxicity toward CD33-positive tumor cells,THP-1 cells,potent antigen-specific cytotoxicity; also recorded: potent cell killing activity
same,toxicity toward CD33-negative cells,Namalwa cells,No significant toxicity
same,mice showing complete cures,[1]; 13 mg/kg i.v. once a day for 5 days,2 of 5
same,tumor growth delay,"[1]; 13 mg/kg i.v. once a day for 5 days, the other 3 mice",approximately 20 days
same,toxicity,[1]; [10],no toxicity
same,tumor response,[1]; [10],complete eradication of the tumors
same,tumor response,[1]; 23 mg antibody/kg (350 μg DM1/kg) daily for 5 days,complete regression of the tumors
same,mouse body weight decrease,[1]; 23 mg antibody/kg daily for 5 days,12%
same,mice with regrowth of tumors,"[1]; 23 mg antibody/kg daily for 5 days, starting at day 70",two of the six
same,maximum body weight loss,[1]; 19 and 26 mg/kg i.v. once a day for 5 days,less than 10%
same,tumor response,"[1]; 19 and 26 mg/kg i.v. once a day for 5 days, tumors 100 mm^3",complete regression of the tumors
same,outcome of mice bearing HL-60 xenografts,[1]; i.v. once a day for 5 days,long-term cures
same,toxicity at curative doses,[1]; i.v. once a day for 5 days,little toxicity
same,response of relapsing tumors to second treatment,[1]; [11],complete regression
same,toxicity of second treatment,[1]; [11],no adverse toxicity
same,outcome of mice bearing THP-1 xenografts,[8],long-term cures
same,response of relapsed tumors to second treatment,large HL-60 tumors; second treatment of My9-6-DM1,sensitive to a second treatment
same,mice with relapsed tumors,large HL-60 tumors; [12],2 of 6
same,tumor response,large HL-60 tumors; [12],complete regression of large tumors
same,effect on survival,[2],dramatic increase in survival
same,mice alive at 70 days,[2]; i.v. daily ×5,7 of 8

# — US10000566B2, “Anti-CD33 antibodies and methods for treatment of acute myeloid leukemia using the same” (IMMUNOGEN INC., priority 2002, dated 2018)
